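How tested: cells in 96-well plates exposed to compound for 48 hours at five concentrations. GI50 is the concentration that inhibits growth by half.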 Active and inactive are the calls of the source. Rule as the data show it: active = GI50 up to about 1.1 µM and inactive = higher.

The record followed here is ChEMBL document CHEMBL1201862, “PubChem BioAssay data set” (2004).

Test systems include PC-3; HOP-62; EKVX; SW-620; UACC-257; HCC 2998; SNB-19; IGROV-1; SK-MEL-2; NCI-H460; UACC-62; MDA-MB-231; U-251; SK-MEL-28; HCT-116; SF-268; ACHN; RXF 393; OVCAR-3.
Common to all, as to assay: DTP human tumour cell line panel, 48 h

Consider `CC(C)=CC1C(C(=O)OCc2cc3c(cc2Cl)OCO3)C1(C)C` (stereo not given), for which the GI50 in the assay with PC-3 is 11.5 µM (inactive); with HOP-62 it was 22.7 µM (inactive); in the assay with EKVX it was 13.5 µM (inactive); in the assay with SW-620, 55.7 µM (inactive); in the assay with UACC-257 it was 12.6 µM (inactive); in the assay on HCC 2998, 17 µM (inactive). For the same compound, the GI50 in the assay with SNB-19 was > 100 µM (inactive); in the assay on IGROV-1 it was 20 µM (inactive); with SK-MEL-2, 6.4 µM (inactive); with NCI-H460 it was 24.4 µM (inactive); in the assay on UACC-62 it was 43.1 µM (inactive); in the assay with MDA-MB-231, 13.5 µM (inactive). The GI50 in the assay with U-251 is 12.6 µM (inactive); in the assay with SK-MEL-28, 54.1 µM (inactive); in the assay on HCT-116, 26.4 µM (inactive); in the assay with SF-268, 39.7 µM (inactive); with ACHN, 28.7 µM (inactive); in the assay on RXF 393 it was 44.1 µM (inactive). Further, the GI50 with OVCAR-3 was 20.6 µM (inactive).
With `Cc1ccc(/N=N/C(=N\c2ccc(F)cc2)c2ccc(N(CCC#N)CCC#N)cc2)cc1`, the GI50 with PC-3 was 51.6 µM (inactive); in the assay with HOP-62 it was > 100 µM (inactive); with EKVX, 99.5 µM (inactive); in the assay on SW-620, > 100 µM (inactive); with UACC-257, 30.3 µM (inactive); with HCC 2998 it was 46.9 µM (inactive). The GI50 with SNB-19 was > 100 µM (inactive); in the assay with IGROV-1 it was 70.1 µM (inactive); in the assay with SK-MEL-2 it was 62.7 µM (inactive); with NCI-H460, 33.5 µM (inactive); with UACC-62, > 100 µM (inactive); in the assay with MDA-MB-231 it was > 100 µM (inactive). For the same compound, the GI50 in the assay with U-251 is 36.2 µM (inactive); in the assay with SK-MEL-28, > 100 µM (inactive); in the assay on HCT-116, 74.1 µM (inactive); in the assay with SF-268 it was > 100 µM (inactive); with ACHN it was > 100 µM (inactive); with RXF 393 it was > 100 µM (inactive). Also, in the assay with OVCAR-3, the GI50 is 86.3 µM (inactive).
Consider `COc1cc(OC)c(/C=C\c2cc(/C=C/c3c(OC)cc(OC)cc3OC)c3ccccc3[n+]2C)c(OC)c1`, for which the GI50 in the assay with PC-3 was 2.6 µM (inactive); in the assay on HOP-62 it was 1.07 µM (active); with EKVX it was 2.99 µM (inactive); with SW-620, 2.39 µM (inactive); with UACC-257 it was 2.92 µM (inactive); with HCC 2998, 3.48 µM (inactive). In addition, the GI50 in the assay with SNB-19 is 8.47 µM (inactive); in the assay with IGROV-1, 3.24 µM (inactive); with SK-MEL-2 it was 1.74 µM (inactive); with NCI-H460 it was 2.21 µM (inactive); with UACC-62, 2.82 µM (inactive); in the assay on MDA-MB-231 it was 4.03 µM (inactive). Moreover, the GI50 in the assay on U-251 was 1.28 µM (inactive); in the assay on SK-MEL-28, 3.39 µM (inactive); in the assay on HCT-116, 2.47 µM (inactive); in the assay with SF-268, 2.52 µM (inactive); with ACHN, 4.59 µM (inactive); with RXF 393 it was 3.41 µM (inactive). For the same compound, the GI50 in the assay with OVCAR-3 is 2.33 µM (inactive).
As for `COc1cc2cccc(N)c2cc1OC`, the GI50 in the assay with PC-3, in the assay on HOP-62, in the assay with EKVX, in the assay with SW-620, in the assay on UACC-257 and in the assay with HCC 2998 was > 100 µM (inactive) in each case. For the same compound, the GI50 in the assay with SNB-19, in the assay with IGROV-1, in the assay with SK-MEL-2, in the assay on NCI-H460, with UACC-62 and in the assay on MDA-MB-231 was > 100 µM (inactive) in each case. The GI50 with U-251, with SK-MEL-28, in the assay with HCT-116, with SF-268, in the assay with ACHN and in the assay on RXF 393 was > 100 µM (inactive) each time. The GI50 with OVCAR-3 was > 100 µM (inactive).
On to `N#Cc1c(C#N)c(SSc2c(C#N)c(C#N)c(N)n2-c2cccc3ccccc23)n(-c2cccc3ccccc23)c1N`, for which the GI50 in the assay on PC-3 is 17.4 µM (inactive); with HOP-62, 21.7 µM (inactive); in the assay on EKVX it was 5.51 µM (inactive); with SW-620, 2.56 µM (inactive); with UACC-257 it was 5.62 µM (inactive); with HCC 2998, 20.1 µM (inactive). In addition, the GI50 in the assay on SNB-19 is 20.9 µM (inactive); with IGROV-1 it was 7.45 µM (inactive); with SK-MEL-2, 15.3 µM (inactive); with NCI-H460, 46.8 µM (inactive); in the assay on UACC-62, 18 µM (inactive); in the assay on MDA-MB-231, 18.4 µM (inactive). The GI50 in the assay on U-251 is 19.7 µM (inactive); with SK-MEL-28 it was 6.03 µM (inactive); in the assay on HCT-116 it was 2.37 µM (inactive); with SF-268 it was 14.4 µM (inactive); with ACHN, 5.15 µM (inactive); in the assay with RXF 393, 6.08 µM (inactive). In addition, the GI50 in the assay with OVCAR-3 is 1.84 µM (inactive).
Turning to `C[C@]12CC[C@H]3[C@@H](CC=C4C[C@@H](O)CC[C@@]43C)[C@@H]1C/C(=C\c1ccncc1)[C@@H]2O`, the GI50 in the assay on PC-3 is 19.1 µM (inactive); with HOP-62, 29.9 µM (inactive); in the assay on EKVX, 14.8 µM (inactive); in the assay on SW-620, 31.1 µM (inactive); in the assay on UACC-257 it was 17.3 µM (inactive); in the assay on HCC 2998, 31.8 µM (inactive). The GI50 is 21.2 µM (inactive) with SNB-19; 21.8 µM (inactive) in the assay on IGROV-1; 21.1 µM (inactive) with SK-MEL-2; 15.1 µM (inactive) with NCI-H460; 15.4 µM (inactive) with UACC-62; 28.8 µM (inactive) in the assay with MDA-MB-231. Further, the GI50 with U-251 was 16.5 µM (inactive); with SK-MEL-28, 18.1 µM (inactive); with HCT-116 it was 18.7 µM (inactive); in the assay with SF-268 it was 21.2 µM (inactive); with ACHN, 16.9 µM (inactive); with RXF 393, 18.1 µM (inactive). In addition, the GI50 with OVCAR-3 is 23.7 µM (inactive).
Turning to `Cc1ccc(Nc2nc3ccccc3c(=O)n2N)cc1`, the GI50 in the assay with PC-3, in the assay with HOP-62, in the assay on EKVX, with SW-620, with UACC-257 and in the assay on HCC 2998 was > 100 µM (inactive) in each case. Besides, the GI50 in the assay on SNB-19 is > 100 µM (inactive); with IGROV-1, 88.3 µM (inactive); with SK-MEL-2, > 100 µM (inactive); in the assay with NCI-H460 it was > 100 µM (inactive); with UACC-62, > 100 µM (inactive); in the assay on MDA-MB-231, > 100 µM (inactive). Besides, the GI50 in the assay on U-251, in the assay with SK-MEL-28, in the assay with HCT-116, in the assay with SF-268, in the assay on ACHN and with RXF 393 was > 100 µM (inactive) each time. The GI50 with OVCAR-3 is > 100 µM (inactive).
Turning to `CCOC(=O)CC(N1CC1)N1CC1`, the GI50 in the assay with PC-3, with HOP-62, in the assay with EKVX, in the assay on SW-620, with UACC-257 and with HCC 2998 was > 10 µM (inactive) in each case. For the same compound, the GI50 with SNB-19, in the assay with IGROV-1, in the assay with SK-MEL-2, in the assay with NCI-H460, in the assay with UACC-62 and in the assay on MDA-MB-231 was > 10 µM (inactive) throughout. Further, the GI50 with U-251, with SK-MEL-28, with HCT-116, with SF-268, in the assay with ACHN and in the assay on RXF 393 was > 10 µM (inactive) each time. In addition, the GI50 in the assay on OVCAR-3 was > 10 µM (inactive).
Consider `O=C(CCc1ccccc1)n1cccc1CO`, for which the GI50 with PC-3, in the assay on HOP-62, with EKVX, in the assay on SW-620, with UACC-257 and with HCC 2998 was > 100 µM (inactive) in each case. In addition, the GI50 with SNB-19, with IGROV-1, in the assay with SK-MEL-2, with NCI-H460, in the assay with UACC-62 and in the assay with MDA-MB-231 was > 100 µM (inactive) each time. In addition, the GI50 in the assay with U-251 is > 100 µM (inactive); in the assay with SK-MEL-28, > 100 µM (inactive); in the assay with HCT-116, > 100 µM (inactive); with SF-268 it was > 100 µM (inactive); with ACHN it was > 100 µM (inactive); in the assay with RXF 393, 93.3 µM (inactive). Further, the GI50 in the assay with OVCAR-3 is > 100 µM (inactive).
For the compound `O=C1NC(=O)[C@H]2C3C=CC([C@@H]12)[C@@H]1C(=O)NC(=O)[C@H]31`, the GI50 in the assay on PC-3, in the assay on HOP-62, with EKVX, with SW-620, in the assay on UACC-257 and in the assay with HCC 2998 was > 100 µM (inactive) throughout. The GI50 in the assay on SNB-19, with IGROV-1, in the assay on SK-MEL-2, in the assay with NCI-H460, with UACC-62 and in the assay on MDA-MB-231 was > 100 µM (inactive) each time. For the same compound, the GI50 in the assay with U-251, in the assay on SK-MEL-28, with HCT-116, with SF-268, with ACHN and with RXF 393 was > 100 µM (inactive) each time. Besides, in the assay on OVCAR-3, the GI50 is > 100 µM (inactive).
